Assay results: ChEMBL document CHEMBL4476883, “Hydroxy formamide derivatives and their use” (2017)

Tests used:
[1] = molecular target: T1, Bone morphogenetic protein 1 (Homo sapiens, UniProt P13497); experiment: Inhibition of C-terminal FLAG-6x-His epitope tagged and N-terminal human RAGE signal sequence tagged human BMP1 (23 to 721 amino acids) expressed in CHO-E1A cells pre-incubated for 10 mins before promyostatin peptide substrate addition and measured after 60 mins using 0.5 nM BMP1 by FRET based assay; format: cell-based
T1 sequence (P13497 whole entry): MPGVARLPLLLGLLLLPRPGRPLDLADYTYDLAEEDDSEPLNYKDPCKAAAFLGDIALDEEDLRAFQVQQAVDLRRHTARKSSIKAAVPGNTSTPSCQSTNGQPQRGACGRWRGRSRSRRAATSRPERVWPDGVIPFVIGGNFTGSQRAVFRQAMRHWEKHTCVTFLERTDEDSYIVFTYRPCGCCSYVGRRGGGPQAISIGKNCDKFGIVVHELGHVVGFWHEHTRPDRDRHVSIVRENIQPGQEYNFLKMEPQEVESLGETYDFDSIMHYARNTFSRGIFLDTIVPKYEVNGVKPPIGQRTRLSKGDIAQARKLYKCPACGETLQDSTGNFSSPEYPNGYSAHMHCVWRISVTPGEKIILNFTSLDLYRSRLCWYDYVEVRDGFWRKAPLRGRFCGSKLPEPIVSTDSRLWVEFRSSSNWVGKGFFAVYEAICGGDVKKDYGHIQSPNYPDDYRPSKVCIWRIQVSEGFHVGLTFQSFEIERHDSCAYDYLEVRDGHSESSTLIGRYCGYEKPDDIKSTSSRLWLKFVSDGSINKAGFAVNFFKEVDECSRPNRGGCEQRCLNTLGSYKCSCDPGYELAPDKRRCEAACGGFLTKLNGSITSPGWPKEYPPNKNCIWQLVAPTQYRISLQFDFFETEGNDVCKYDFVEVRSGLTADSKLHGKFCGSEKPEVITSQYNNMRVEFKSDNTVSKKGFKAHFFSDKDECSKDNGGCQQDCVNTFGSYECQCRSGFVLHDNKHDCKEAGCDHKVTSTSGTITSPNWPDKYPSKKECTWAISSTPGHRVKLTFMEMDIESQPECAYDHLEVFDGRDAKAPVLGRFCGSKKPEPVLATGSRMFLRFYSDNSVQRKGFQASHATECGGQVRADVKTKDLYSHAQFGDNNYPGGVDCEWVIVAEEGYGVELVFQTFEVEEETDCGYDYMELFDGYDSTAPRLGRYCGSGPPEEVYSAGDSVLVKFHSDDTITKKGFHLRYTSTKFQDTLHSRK

Tolloid-like protein 2 = molecular target: T2, Tolloid-like protein 2 (Homo sapiens, UniProt Q9Y6L7); experiment: Inhibition of C-terminal Avi-6x-His epitope tagged and N-terminal human RAGE signal sequence tagged recombinant human TLL2 (26 to 1015 amino acids) expressed in CHOE1A cells incubated for 60 mins with promyostatin peptide substrate by FRET based assay; format: cell-based
T2 sequence (Q9Y6L7 whole entry): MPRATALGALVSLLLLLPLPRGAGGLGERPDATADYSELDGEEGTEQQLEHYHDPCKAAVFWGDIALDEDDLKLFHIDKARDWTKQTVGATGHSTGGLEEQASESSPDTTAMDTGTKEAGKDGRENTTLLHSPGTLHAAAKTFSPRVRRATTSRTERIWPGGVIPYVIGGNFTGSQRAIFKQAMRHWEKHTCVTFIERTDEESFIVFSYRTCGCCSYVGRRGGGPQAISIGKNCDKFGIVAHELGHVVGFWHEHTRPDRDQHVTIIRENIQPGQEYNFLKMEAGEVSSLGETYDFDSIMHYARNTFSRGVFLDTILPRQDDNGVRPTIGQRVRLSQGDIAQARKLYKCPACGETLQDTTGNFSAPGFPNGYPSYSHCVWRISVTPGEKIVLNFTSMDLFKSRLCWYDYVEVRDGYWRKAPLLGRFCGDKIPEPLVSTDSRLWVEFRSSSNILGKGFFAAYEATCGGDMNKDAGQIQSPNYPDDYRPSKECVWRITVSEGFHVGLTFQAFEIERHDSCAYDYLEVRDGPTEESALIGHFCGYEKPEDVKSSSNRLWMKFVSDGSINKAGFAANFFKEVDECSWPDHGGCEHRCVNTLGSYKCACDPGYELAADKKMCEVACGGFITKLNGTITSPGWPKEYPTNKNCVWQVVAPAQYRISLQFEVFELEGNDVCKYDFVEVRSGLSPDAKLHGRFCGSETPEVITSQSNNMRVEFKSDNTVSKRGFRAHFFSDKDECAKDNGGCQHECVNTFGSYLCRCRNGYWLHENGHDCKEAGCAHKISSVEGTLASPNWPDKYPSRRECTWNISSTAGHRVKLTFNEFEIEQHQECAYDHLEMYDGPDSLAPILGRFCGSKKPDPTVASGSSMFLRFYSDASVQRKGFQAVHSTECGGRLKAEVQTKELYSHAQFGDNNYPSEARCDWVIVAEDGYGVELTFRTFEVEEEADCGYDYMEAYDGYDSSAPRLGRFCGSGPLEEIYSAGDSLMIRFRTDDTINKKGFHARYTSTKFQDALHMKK

Tolloid-like protein 1 = Tolloid-like protein 1 (Homo sapiens, UniProt O43897, I156V/N221S/V284A); experiment: Inhibition of recombinant human TLL1 I156V/N221S/V284A mutant expressed in CHOE1A cells pre-incubated for 10 mins before promyostatin peptide substrate addition and measured after 60 mins by FRET based assay; format: cell-based
[2] = Reduction in PICP levels in human cardiac fibroblasts incubated for 24 to 48 hrs by ELISA; format: functional
[3] = Reduction in mature collagen deposition levels in human cardiac fibroblasts incubated for 24 to 48 hrs by immunostaining based assay; format: functional
[4] = molecular target: T1, Bone morphogenetic protein 1; experiment: Inhibition of C-terminal FLAG-6x-His epitope tagged and N-terminal human RAGE signal sequence tagged human BMP1 (23 to 721 amino acids) expressed in CHO-E1A cells pre-incubated for 10 mins before promyostatin peptide substrate addition and measured after 30 mins using 50 nM BMP1 by FRET based assay; format: cell-based

Tolloid-like protein 1, sequence (O43897 148-1013 I156V/N221S/V284A limits assumed): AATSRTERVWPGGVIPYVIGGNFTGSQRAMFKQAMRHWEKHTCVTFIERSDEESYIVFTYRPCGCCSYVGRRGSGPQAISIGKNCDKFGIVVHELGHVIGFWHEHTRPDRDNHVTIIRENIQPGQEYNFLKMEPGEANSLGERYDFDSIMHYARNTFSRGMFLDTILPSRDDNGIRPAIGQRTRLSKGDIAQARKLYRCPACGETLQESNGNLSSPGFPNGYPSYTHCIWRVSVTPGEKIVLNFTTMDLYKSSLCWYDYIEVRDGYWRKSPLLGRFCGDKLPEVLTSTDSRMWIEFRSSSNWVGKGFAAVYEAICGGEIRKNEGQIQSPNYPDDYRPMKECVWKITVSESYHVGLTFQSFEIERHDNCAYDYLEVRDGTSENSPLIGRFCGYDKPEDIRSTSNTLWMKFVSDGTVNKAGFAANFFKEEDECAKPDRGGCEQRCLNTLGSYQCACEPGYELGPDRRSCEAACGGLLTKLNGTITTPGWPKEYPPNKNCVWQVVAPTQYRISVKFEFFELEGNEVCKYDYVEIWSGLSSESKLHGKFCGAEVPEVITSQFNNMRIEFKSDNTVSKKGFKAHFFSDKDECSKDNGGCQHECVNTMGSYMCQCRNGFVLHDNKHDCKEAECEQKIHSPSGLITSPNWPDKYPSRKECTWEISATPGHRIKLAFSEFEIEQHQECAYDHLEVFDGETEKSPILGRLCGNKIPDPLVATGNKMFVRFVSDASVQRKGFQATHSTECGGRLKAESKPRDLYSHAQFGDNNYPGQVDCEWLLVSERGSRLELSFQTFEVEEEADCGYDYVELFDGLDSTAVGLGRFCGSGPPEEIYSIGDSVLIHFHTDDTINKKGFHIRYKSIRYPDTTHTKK

IC50 [1]: < 126 nM
IC50 (Tolloid-like protein 2): < 631 nM
IC50 (Tolloid-like protein 1): < 398 nM
IC50 [4]: < 251 nM
Compound: CCCCC[C@@H](C(=O)NCNC(=O)c1ccnc(-c2ccc(P(=O)(O)O)c(OCC)c2)n1)[C@@H](CC)N(O)C=O
IC50 [2]: < 20 µM
IC50 [3]: < 1580 nM
